# Experimental data from the Deep4Chem optical property database.
# Assay: photoluminescence quantum yield (fraction); solvent given as SMILES
structure (smiles),measurement,setting,value
Cc1ccc(N(c2ccc(C)cc2)c2c3ccccc3c(N(c3ccc(C)cc3)c3ccc(C)cc3)c3ccccc23)cc1,photoluminescence quantum yield,in Cc1ccccc1,0.95
COc1ccc2c(-c3nc(-c4ccccc4F)no3)cc(=O)oc2c1,photoluminescence quantum yield,in CCO,0.57
same,photoluminescence quantum yield,in ClC(Cl)Cl,0.25
O=C(O)C1=C(C(=O)O)C2=C[C@H]3c4ccccc4[C@]2(S1)c1ccccc13,photoluminescence quantum yield,in ClCCl,0.72
CCCCc1ccc2ccc3c(CCCC)cc(CCCC)c4ccc1c2c34,photoluminescence quantum yield,in CCCCCC,0.49
same,photoluminescence quantum yield,in CO,0.6
same,photoluminescence quantum yield,in ClCCl,0.43
CCCCc1cc(-c2cccc(COC)c2)oc1-c1cccc(-c2cc(CCCC)c(-c3cccc(-c4oc(-c5cccc(-c6oc(-c7cccc(COC)c7)cc6CCCC)c5)cc4CCCC)c3)o2)c1,photoluminescence quantum yield,in ClC(Cl)Cl,0.23
CN(C)c1cc(C#N)c(N(C)C)c(C#N)c1,photoluminescence quantum yield,in C1CCCCC1,0.37
same,photoluminescence quantum yield,in C1CCOC1,0.54
same,photoluminescence quantum yield,in C1COCCO1,0.55
same,photoluminescence quantum yield,in CC1COC(=O)O1,0.58
same,photoluminescence quantum yield,in CC#N,0.53
same,photoluminescence quantum yield,in CC(C)=O,0.51
same,photoluminescence quantum yield,in CC(C)OC(C)C,0.39
same,photoluminescence quantum yield,in CCC#N,0.47
same,photoluminescence quantum yield,in CCC(C)C,0.37
same,photoluminescence quantum yield,in CCCCCC,0.38
same,photoluminescence quantum yield,in CCCCCCCCO,0.58
same,photoluminescence quantum yield,in CCCCCOCCCCC,0.46
same,photoluminescence quantum yield,in CCCCOC(C)=O,0.52
same,photoluminescence quantum yield,in CCCCOCCCC,0.45
same,photoluminescence quantum yield,in CCCOCCC,0.55
same,photoluminescence quantum yield,in CCO,0.51
same,photoluminescence quantum yield,in CCOC(C)=O,0.49
same,photoluminescence quantum yield,in CCOCC,0.46
same,photoluminescence quantum yield,in CN(C)C=O,0.57
same,photoluminescence quantum yield,in CO,0.52
same,photoluminescence quantum yield,in CS(C)=O,0.55
same,photoluminescence quantum yield,in Cc1ccccc1,0.55
same,photoluminescence quantum yield,in ClCCCl,0.52
same,photoluminescence quantum yield,in ClCCl,0.57
same,photoluminescence quantum yield,in N#Cc1ccccc1,0.5
same,photoluminescence quantum yield,in O,0.47
same,photoluminescence quantum yield,in OCC(O)CO,0.54
same,photoluminescence quantum yield,in c1ccccc1,0.57
Cc1cc2sccc2c2[nH]c3ccccc3c12,photoluminescence quantum yield,in ClCCl,0.053
CN(C)c1ccc(/C=C/c2nc3ccccc3s2)cc1,photoluminescence quantum yield,in C1CCCCC1,0.001
same,photoluminescence quantum yield,in C1CCOC1,0.003
same,photoluminescence quantum yield,in C1COCCO1,0.0022
same,photoluminescence quantum yield,in CC#N,0.0066
same,photoluminescence quantum yield,in CC(C)O,0.0048
same,photoluminescence quantum yield,in CCCCCC,0.0018
same,photoluminescence quantum yield,in CCCCCCC,0.0014
same,photoluminescence quantum yield,in CCO,0.0045
same,photoluminescence quantum yield,in CCOC(C)=O,0.0053
same,photoluminescence quantum yield,in CCOCC,0.002
same,photoluminescence quantum yield,in CN(C)C=O,0.007
same,photoluminescence quantum yield,in CO,0.003
same,photoluminescence quantum yield,in CS(C)=O,0.0078
same,photoluminescence quantum yield,in O,0.0012
same,photoluminescence quantum yield,in OCC(O)CO,0.115
CCCCCCOC(=O)/C=C/C1=CC2=C(c3c(C)cc(C)cc3C)c3cc(/C=C/C(=O)OCCCCCC)cn3[B-](F)(F)[N+]2=C1,photoluminescence quantum yield,in ClCCl,0.68
CCCCCCCCCc1c2ccccc2cc2c1oc1c3c(c4ccccc4c12)-c1c(c2oc4cc5ccccc5cc4c2c2ccccc12)OCO3,photoluminescence quantum yield,in C1CCOC1,0.7
Fc1ccccc1-c1c2cc(Cl)ccc2nc2cc3ccccc3cc12,photoluminescence quantum yield,in ClCCl,0.46
C(=C\c1cnc2ccccc2n1)/c1ccc(-c2ccc(N(c3ccccc3)c3ccccc3)cc2)cc1,photoluminescence quantum yield,in ClCCl,0.35
CC/[NH+]=c1\cc2oc3cc(NCCC(=O)NC(C)C(=O)OC)c4ccccc4c3nc-2cc1C (configuration not stated),photoluminescence quantum yield,in CCO,0.39
Cc1cc(C)c(B(c2cc3c4c(c(B(c5c(C)cc(C)cc5C)c5c(C)cc(C)cc5C)cc5c4c2CCC5)CCC3)c2c(C)cc(C)cc2C)c(C)c1,photoluminescence quantum yield,in CCCCCC,0.9
COc1cc(OC)c2c(c1)C(=O)c1ccc(OC)cc1-2,photoluminescence quantum yield,in C1CCCCC1,0.0095
same,photoluminescence quantum yield,in CC#N,0.0012
same,photoluminescence quantum yield,in CCO,0
COC(=O)c1[nH]c(-c2ccc(OC)cc2)c2nnc3ccc(OC)cc3c12,photoluminescence quantum yield,in ClCCl,0.282
Nc1ccc2c(-c3ccccc3C(=O)[O-])c3ccc(=[NH2+])cc-3oc2c1,photoluminescence quantum yield,in CC#N,0.95
same,photoluminescence quantum yield,in CCO,0.88
same,photoluminescence quantum yield,in CN(C)C=O,0.84
same,photoluminescence quantum yield,in O,0.85
COC(=O)c1cc(=O)n(C)c2cc(-c3ccc(Oc4ccccc4)cc3)sc12,photoluminescence quantum yield,in CC#N,0.63
same,photoluminescence quantum yield,in ClCCl,0.83
F[B-]1(F)n2c(ccc2-c2cccs2)C(c2ccc(Br)cc2)=C2C=CC(c3cccs3)=[N+]21,photoluminescence quantum yield,in ClC(Cl)Cl,0.82
CC(C)(C(=O)c1ccc(N2c3ccccc3Oc3ccccc32)cc1)C(=O)c1ccc(N2c3ccccc3Oc3ccccc32)cc1,photoluminescence quantum yield,in c1ccc2c(c1)c1ccccc1n2-c1ccc(-c2ccc(-n3c4ccccc4c4ccccc43)cc2)cc1,0.54
C(#Cc1ccccc1)C1=Cc2ccc3ccccc3c2NB1c1ccccc1,photoluminescence quantum yield,in C1CCCCC1,0.72
COc1c2ccccc2c(OC)c2c1c1cc(F)ccc1n2C,photoluminescence quantum yield,in C1CCCCC1,0.39
same,photoluminescence quantum yield,in CC#N,0.34
same,photoluminescence quantum yield,in CO,0.33
same,photoluminescence quantum yield,in ClCCl,0.37
COc1ccc(N(c2ccc(OC)cc2)c2ccc(-c3ccc(-c4ccc(-c5cccs5)c5nsnc45)s3)cc2)cc1,photoluminescence quantum yield,in ClC(Cl)Cl,0.28
C[Si]1(C)c2cc(-c3ccccc3)ccc2C=Cc2ccc(-c3ccccc3)cc21,photoluminescence quantum yield,in ClCCl,0.9
Cc1ccccc1-c1c2ccc(=[N+]3CCCCC3)cc-2oc2cc(N3CCCCC3)ccc12,photoluminescence quantum yield,in CCO,0.28
same,photoluminescence quantum yield,in ClCCl,0.89
F[B-]1(F)OC(c2ccc(C(F)(F)F)cc2)=Cc2cc(Cl)nc[n+]21,photoluminescence quantum yield,in C1CCOC1,0.01
same,photoluminescence quantum yield,in CC#N,0.01
same,photoluminescence quantum yield,in Cc1ccccc1,0.04
same,photoluminescence quantum yield,in ClC(Cl)Cl,0.01
same,photoluminescence quantum yield,in ClCCl,0.01
CCCCOC(=O)c1cc(Cl)c2c3c(Cl)cc4c5c(cc(Cl)c(c6c(Oc7ccc(OC)cc7)cc(C(=O)OCCCC)c1c26)c53)C(=O)N(c1c(C(C)C)cccc1C(C)C)C4=O,photoluminescence quantum yield,in Cc1ccccc1,0.12
COc1ccc(C(=Cc2ccc(C=O)cc2)c2ccc(OC)cc2)cc1,photoluminescence quantum yield,in C1CCOC1,0.066
COc1ccc(-c2pc3ccccc3s2)cc1 (configuration not stated),photoluminescence quantum yield,in CC#N,0.054
Nc1ccc2c(c1)C(=O)c1ccccc1-2,photoluminescence quantum yield,in C1CCCCC1,0.0086
same,photoluminescence quantum yield,in c1ccccc1,0.00099
CC1=[N+]2C(=C(c3ccc(C(=O)c4ccccc4)cc3)c3ccc(C)n3[B-]2(F)F)C=C1c1cc2n(c1)[B-](F)(F)[N+]1=CC=CC1=C2c1c(C)cc(C)cc1C,photoluminescence quantum yield,in C1CCCCC1,0.47
same,photoluminescence quantum yield,in CCOC(C)=O,0.13
Nc1ncnc2c1c(-c1ccc3ccccc3c1)nn2[C@H]1C[C@H](O)[C@@H](CO)O1,photoluminescence quantum yield,in C1COCCO1,0.11
same,photoluminescence quantum yield,in CC#N,0.1
same,photoluminescence quantum yield,in CC(C)O,0.16
same,photoluminescence quantum yield,in CCO,0.14
same,photoluminescence quantum yield,in CCOC(C)=O,0.08
same,photoluminescence quantum yield,in CN(C)C=O,0.13
same,photoluminescence quantum yield,in CO,0.14
same,photoluminescence quantum yield,in CS(C)=O,0.15
same,photoluminescence quantum yield,in OCC(O)CO,0.11
same,photoluminescence quantum yield,in OCCO,0.21
CC1=CC(C)=[N+]2C1=C(c1ccc(N3CCCCC3)cc1)c1c(C)cc(C)n1[B-]2(F)F,photoluminescence quantum yield,in C1CCOC1,0.008
same,photoluminescence quantum yield,in CC#N,0.005
same,photoluminescence quantum yield,in CC(=O)C(C)(C)C,0.024
same,photoluminescence quantum yield,in CC(C)=O,0.002
same,photoluminescence quantum yield,in CCCCCC,0.384
same,photoluminescence quantum yield,in CCOC(C)=O,0.006
CCOC(=O)c1ccccc1-c1c2ccc(=[N+](CC)CC)cc-2oc2c1oc1cc(N)ccc12,photoluminescence quantum yield,in CCO,0.501
same,photoluminescence quantum yield,in ClCCl,0.732
same,photoluminescence quantum yield,in O,0.088
C(/C=C/C1=[NH+]c2cccc3cccc1c23)=c1/[nH]c2cccc3cccc1c32,photoluminescence quantum yield,in CO,0.0013
CC(C)(C)c1ccc2c(c1)c1cc(C(C)(C)C)ccc1n2-c1cccc(-c2nc(-c3cccc(-n4c5ccc(C(C)(C)C)cc5c5cc(C(C)(C)C)ccc54)c3)nc(-c3cccc(P(=O)(c4ccccc4)c4ccccc4)c3)n2)c1,photoluminescence quantum yield,in O=P(c1ccccc1)(c1ccccc1)c1ccccc1Oc1ccccc1P(=O)(c1ccccc1)c1ccccc1,0.55
Cc1cc(C)c(B(c2c(C)cc(C)cc2C)c2cc3ccc4ccccc4c3c3c2cc(N(C)C)c2ccccc23)c(C)c1,photoluminescence quantum yield,in C1CCCCC1,0.23
same,photoluminescence quantum yield,in C1CCOC1,0.09
same,photoluminescence quantum yield,in CC#N,0.04
same,photoluminescence quantum yield,in ClC(Cl)Cl,0.1
same,photoluminescence quantum yield,in c1ccccc1,0.14
N#Cc1c(N2CCCCC2)cc(-c2cccc3ccccc23)c2c1CCc1ccccc1-2,photoluminescence quantum yield,in C1CCOC1,0.42
CC[Si](C#Cc1c2c(=O)c3ccccc3c2c(C#C[Si](CC)(CC)CC)c2c(=O)c3ccccc3c12)(CC)CC,photoluminescence quantum yield,in ClC(Cl)Cl,0.08
c1cc2ccc1-c1ccc(cc1)-c1ccc([se]1)-c1ccc(cc1)-c1ccc(cc1)-c1ccc([se]1)-c1ccc(cc1)-c1ccc(cc1)-c1ccc([se]1)-c1ccc(cc1)-c1ccc(cc1)-c1ccc-2[se]1,photoluminescence quantum yield,in C1CCOC1,0.13
CC1=C(C)c2cccc3c2c(cc2nc4ccccc4nc23)O1,photoluminescence quantum yield,in ClCCl,0.41
CCCCc1cc(-c2cccc(COC)c2)oc1-c1cccc(COC)c1,photoluminescence quantum yield,in ClC(Cl)Cl,0.87
COC(=O)c1ccc(/C=C2\N=C(c3ccccc3)OC2=O)cc1,photoluminescence quantum yield,in C1COCCO1,0
C1=Cc2ccc(N(c3ccccc3)c3ccccc3)cc2C2(c3cc(N(c4ccccc4)c4ccccc4)ccc31)c1ccccc1-c1ccccc12,photoluminescence quantum yield,in ClCCl,0.9
c1cc2ccc3ccc(-n4c5ccccc5c5ccccc54)c4ccc(c1)c2c34,photoluminescence quantum yield,in CCCCCC,0.26
same,photoluminescence quantum yield,in CCO,0.38
same,photoluminescence quantum yield,in CCOC(C)=O,0.29
same,photoluminescence quantum yield,in ClCCl,0.44
F[B-]1(F)n2c(Cl)c(Cl)c(Br)c2C(Cl)=C2C(Br)=C(Cl)C(Cl)=[N+]21,photoluminescence quantum yield,in ClCCl,0.18
COc1ccc(OC)c(C=O)c1,photoluminescence quantum yield,in C1CCOC1,0.0001
same,photoluminescence quantum yield,in C1COCCO1,0.0001
same,photoluminescence quantum yield,in CC#N,0.0001
same,photoluminescence quantum yield,in CC(C)=O,0.01
same,photoluminescence quantum yield,in CCCO,0.31
same,photoluminescence quantum yield,in CCO,0.26
same,photoluminescence quantum yield,in CN(C)C=O,0.0001
same,photoluminescence quantum yield,in CN(C)P(=O)(N(C)C)N(C)C,0.0001
same,photoluminescence quantum yield,in CNC=O,0.11
same,photoluminescence quantum yield,in CO,0.22
same,photoluminescence quantum yield,in CS(C)=O,0.04
same,photoluminescence quantum yield,in ClC(Cl)Cl,0.01
same,photoluminescence quantum yield,in NC=O,0.48
